According to PubChem BioAssay (NCI):
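A five-concentration, 48-hour dose response in 96-well plates underlies each endpoint, interpolated linearly between surrounding concentrations. TGI marks complete inhibition of growth.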

Tests used:
Experiment in all cases: NCI anticancer screen, dose series, 48 h
[1] = system: T-47D breast
[2] = system: SK-OV-3 ovarian
[3] = system: SF-539 CNS
[4] = system: BT-549 breast
[5] = system: MALME-3M melanoma
[6] = system: SNB-19 CNS
[7] = system: K-562 leukemia
[8] = system: SK-MEL-2 melanoma
[9] = system: KM12 colon
[10] = system: CCRF-CEM leukemia
[11] = system: SK-MEL-5 melanoma
[12] = system: SN12C renal
[13] = system: NCI-H23 lung
[14] = system: RXF 393 renal
[15] = system: 786-0 renal
[16] = system: SK-MEL-28 melanoma
[17] = system: MCF7 breast
[18] = system: A549 NSCLC
[19] = system: DU-145 prostate
[20] = system: NCI/ADR-RES ovarian
[21] = system: HL-60(TB) leukemia
[22] = system: HOP-92 NSCLC
[23] = system: HCT-15 colon
[24] = system: A498 renal
[25] = system: SR leukemia
[26] = system: HS 578T breast
[27] = system: CAKI-1 renal
[28] = system: TK-10 renal
[29] = system: UO-31 renal
[30] = system: UACC-257 melanoma
[31] = system: HCT-116 colon
[32] = system: MDA-MB-435
[33] = system: OVCAR-8 ovarian
[34] = system: ACHN renal
[35] = system: M14 melanoma
[36] = system: NCI-H226 lung
[37] = system: MDA-N
[38] = system: NCI-H460 lung
[39] = system: U251 CNS
[40] = system: UACC-62 melanoma
[41] = system: PC-3 prostate
[42] = system: EKVX NSCLC
[43] = system: LOX IMVI melanoma
[44] = system: SF-268 CNS
[45] = system: HCC-2998 colon
[46] = system: OVCAR-5 ovarian
[47] = system: NCI-H522 lung
[48] = system: SNB-75 CNS
[49] = system: HOP-62 NSCLC
[50] = system: MDA-MB-231 breast
[51] = system: OVCAR-3 ovarian
[52] = system: MOLT-4 leukemia
[53] = system: COLO 205 colon
[54] = system: HT29 colon
[55] = system: SF-295 CNS
[56] = system: SW-620 colon
[57] = system: OVCAR-4 ovarian

SMILES: O=C(c1cccs1)N(C(=S)OC12CC3CC(CC(C3)C1)C2)c1ccccc1
- TGI [1]: > 100 µM
- TGI [2]: > 100 µM
- TGI [3]: > 100 µM
- TGI [4]: > 100 µM
- TGI [5]: > 100 µM
- TGI [6]: > 100 µM
- TGI [7]: > 100 µM
- TGI [8]: 39.3 µM
- TGI [9]: > 100 µM
- TGI [10]: 52.1 µM
- TGI [11]: 55.8 µM
- TGI [12]: 89.8 µM
- TGI [13]: > 100 µM
- TGI [14]: > 100 µM
- TGI [15]: > 100 µM
- TGI [16]: > 100 µM
- TGI [17]: > 100 µM
- TGI [18]: > 100 µM
- TGI [19]: > 100 µM
- TGI [20]: > 100 µM
- TGI [21]: 72.5 µM
- TGI [22]: > 100 µM
- TGI [23]: > 100 µM
- TGI [24]: > 100 µM
- TGI [25]: > 100 µM
- TGI [26]: > 100 µM
- TGI [27]: > 100 µM
- TGI [28]: > 100 µM
- TGI [29]: 70.3 µM
- TGI [30]: > 100 µM
- TGI [31]: 59.3 µM
- TGI [32]: > 100 µM
- TGI [33]: > 100 µM
- TGI [34]: > 100 µM
- TGI [35]: 43 µM
- TGI [36]: > 100 µM
- TGI [37]: > 100 µM
- TGI [38]: > 100 µM
- TGI [39]: > 100 µM
- TGI [40]: 84.8 µM
- TGI [41]: 88.5 µM
- TGI [42]: 55.6 µM
- TGI [43]: 92.9 µM
- TGI [44]: > 100 µM
- TGI [45]: > 100 µM
- TGI [46]: > 100 µM
- TGI [47]: 46 µM
- TGI [48]: > 100 µM
- TGI [49]: > 100 µM
- TGI [50]: > 100 µM
- TGI [51]: > 100 µM
- TGI [52]: > 100 µM
- TGI [53]: 33.8 µM
- TGI [54]: > 100 µM
- TGI [55]: > 100 µM
- TGI [56]: > 100 µM
- TGI [57]: > 100 µM

SMILES: CCOC(=O)C(NC(=O)c1ccco1)(Nc1nc2ccc(OCC)cc2s1)C(F)(F)F (stereo unspecified)
- TGI [1]: > 100 µM
- TGI [2]: > 100 µM
- TGI [3]: > 100 µM
- TGI [4]: > 100 µM
- TGI [5]: > 100 µM
- TGI [6]: > 100 µM
- TGI [7]: > 100 µM
- TGI [8]: > 100 µM
- TGI [9]: 98.3 µM
- TGI [10]: > 100 µM
- TGI [11]: 47.8 µM
- TGI [12]: > 100 µM
- TGI [13]: > 100 µM
- TGI [14]: 30.9 µM
- TGI [15]: 68.4 µM
- TGI [16]: > 100 µM
- TGI [17]: 78.8 µM
- TGI [18]: > 100 µM
- TGI [19]: > 100 µM
- TGI [20]: > 100 µM
- TGI [21]: > 100 µM
- TGI [22]: 47.5 µM
- TGI [23]: > 100 µM
- TGI [25]: 88.5 µM
- TGI [26]: > 100 µM
- TGI [27]: 45.8 µM
- TGI [28]: > 100 µM
- TGI [29]: > 100 µM
- TGI [30]: 76.1 µM
- TGI [31]: 91.2 µM
- TGI [32]: 80.2 µM
- TGI [33]: > 100 µM
- TGI [34]: 82.3 µM
- TGI [35]: > 100 µM
- TGI [36]: > 100 µM
- TGI [37]: 60 µM
- TGI [38]: > 100 µM
- TGI [39]: > 100 µM
- TGI [40]: > 100 µM
- TGI [41]: 93 µM
- TGI [42]: > 100 µM
- TGI [44]: > 100 µM
- TGI [45]: > 100 µM
- TGI [46]: > 100 µM
- TGI [47]: > 100 µM
- TGI [48]: 70.7 µM
- TGI [50]: > 100 µM
- TGI [51]: > 100 µM
- TGI [52]: > 100 µM
- TGI [53]: 46.4 µM
- TGI [54]: > 100 µM
- TGI [55]: > 100 µM
- TGI [56]: > 100 µM
- TGI [57]: > 100 µM
